Laboratory results from the CheMixHub ionic liquid set.
± gives the uncertainty stated by the source.

Assay: xn = mol fraction of the nth substance listed

CCCCCCCCCC[n+]1ccn(C)c1.[Br-] + O
electrical conductivity [S/m], 101 kPa
Conditions	296 K	301 K	306 K	311 K	316 K
x1 = 0.0001622	–	–	–	–	0.0606 ± 0.0013
x1 = 0.0002342	–	–	–	–	0.0892 ± 0.0018
x1 = 0.0002522	0.0652 ± 0.0013	–	–	0.0827 ± 0.0017	–
x1 = 0.0003423	0.0864 ± 0.0017	–	0.1 ± 0.002	0.107 ± 0.0022	0.117 ± 0.0024
x1 = 0.0003603	–	0.0919 ± 0.0019	–	–	–
x1 = 0.0004503	0.102 ± 0.0021	0.11 ± 0.0022	0.118 ± 0.0024	0.131 ± 0.0027	0.14 ± 0.0028
x1 = 0.0005763	0.125 ± 0.0025	0.134 ± 0.0027	0.141 ± 0.0029	0.155 ± 0.0032	0.168 ± 0.0034
x1 = 0.0007023	0.141 ± 0.0029	0.152 ± 0.0031	0.162 ± 0.0033	0.175 ± 0.0036	0.191 ± 0.0039
x1 = 0.0008462	–	0.172 ± 0.0035	–	–	0.223 ± 0.0045
x1 = 0.0008642	0.163 ± 0.0033	–	0.188 ± 0.0038	0.202 ± 0.0041	–
x1 = 0.001026	0.176 ± 0.0035	0.186 ± 0.0038	0.205 ± 0.0042	0.221 ± 0.0045	0.248 ± 0.0051
x1 = 0.001206	0.195 ± 0.0039	0.204 ± 0.0041	0.223 ± 0.0045	0.243 ± 0.0049	0.272 ± 0.0055
x1 = 0.001422	0.205 ± 0.0041	0.22 ± 0.0045	0.237 ± 0.0048	0.254 ± 0.0052	0.291 ± 0.006
x1 = 0.001673	0.216 ± 0.0043	0.23 ± 0.0047	0.257 ± 0.0052	0.271 ± 0.0055	0.309 ± 0.0063
x1 = 0.00196	0.234 ± 0.0047	0.24 ± 0.0048	0.263 ± 0.0053	0.28 ± 0.0057	0.323 ± 0.0067
x1 = 0.002301	–	–	0.274 ± 0.0056	0.293 ± 0.006	0.34 ± 0.007
x1 = 0.002319	–	0.251 ± 0.0051	–	–	–

298.15 K, 100 kPa, frequency 5e-05 MHz
Conditions	electrical conductivity [S/m]
x1 = 0.0003459	0.175 ± 0.079
x1 = 0.0003945	0.199 ± 0.077
x1 = 0.0004629	0.235 ± 0.074
x1 = 0.0004917	0.249 ± 0.076
x1 = 0.0005259	0.265 ± 0.076
x1 = 0.0005781	0.289 ± 0.075
x1 = 0.0006231	0.31 ± 0.068
x1 = 0.0006537	0.325 ± 0.063
x1 = 0.0006861	0.34 ± 0.062
x1 = 0.0007311	0.36 ± 0.052
x1 = 0.0007563	0.37 ± 0.053
x1 = 0.0007922	0.374 ± 0.048
x1 = 0.0009038	0.387 ± 0.034
x1 = 0.000938	0.391 ± 0.034
x1 = 0.0009775	0.395 ± 0.034
x1 = 0.001044	0.403 ± 0.034
x1 = 0.001082	0.407 ± 0.034
x1 = 0.001118	0.41 ± 0.034
x1 = 0.001152	0.414 ± 0.034
x1 = 0.001206	0.422 ± 0.034

CC#N + CCCCCC[P+](CCCC)(CCCC)CCCC.F[B-](F)(F)F
100 kPa, x2 = 0
Conditions	viscosity [mPa·s]
293.15 K	0.354 ± 0.021
298.15 K	0.338 ± 0.02
303.15 K	0.324 ± 0.02
308.15 K	0.31 ± 0.019
313.15 K	0.298 ± 0.018
318.15 K	0.286 ± 0.017

CCCCCCCCCCCCCCCCCC[n+]1ccn(C)c1.O=S(=O)([N-]S(=O)(=O)C(F)(F)F)C(F)(F)F + CCCCCCCCCCCCCC[n+]1ccn(C)c1.O=S(=O)([N-]S(=O)(=O)C(F)(F)F)C(F)(F)F
Conditions	viscosity [mPa·s]
323 K, 101 kPa, x2 = 0.7675	62.9 ± 1.3

CC[n+]1ccn(C)c1.O=S(=O)([O-])O + Cc1ncc(CO)c(CO)c1O.Cl + O
viscosity [mPa·s], 100 kPa
Conditions	293.15 K	298.15 K	303.15 K	308.15 K	313.15 K
x2 = 0, x1 = 0.0009002	1.048 ± 0.08	0.945 ± 0.08	0.835 ± 0.08	0.758 ± 0.08	0.693 ± 0.08
x2 = 0, x1 = 0.001799	1.067 ± 0.081	0.948 ± 0.08	0.855 ± 0.08	0.772 ± 0.08	0.702 ± 0.08
x2 = 0, x1 = 0.002696	1.083 ± 0.081	0.963 ± 0.08	0.862 ± 0.08	0.776 ± 0.08	0.707 ± 0.08
x2 = 0.000265, x1 = 0.002695	1.088 ± 0.081	0.968 ± 0.08	0.867 ± 0.08	0.781 ± 0.08	0.712 ± 0.08
x2 = 0.0002728, x1 = 0.0008999	1.052 ± 0.08	0.949 ± 0.08	0.839 ± 0.08	0.762 ± 0.08	0.697 ± 0.08
x2 = 0.0002827, x1 = 0.001798	1.072 ± 0.081	0.953 ± 0.08	0.86 ± 0.08	0.777 ± 0.08	0.707 ± 0.08
x2 = 0.0004855, x1 = 0.0008998	1.056 ± 0.08	0.953 ± 0.08	0.843 ± 0.08	0.766 ± 0.08	0.701 ± 0.08
x2 = 0.0005353, x1 = 0.002694	1.093 ± 0.081	0.973 ± 0.08	0.872 ± 0.08	0.786 ± 0.08	0.717 ± 0.08
x2 = 0.0005469, x1 = 0.001798	1.077 ± 0.081	0.958 ± 0.08	0.865 ± 0.08	0.782 ± 0.08	0.712 ± 0.08
x2 = 0.0008161, x1 = 0.0008994	1.062 ± 0.08	0.959 ± 0.08	0.849 ± 0.08	0.772 ± 0.08	0.707 ± 0.08
x2 = 0.0008296, x1 = 0.002693	1.099 ± 0.081	0.979 ± 0.08	0.878 ± 0.08	0.792 ± 0.08	0.723 ± 0.08
x2 = 0.0008311, x1 = 0.001797	1.082 ± 0.081	0.963 ± 0.08	0.87 ± 0.08	0.787 ± 0.08	0.717 ± 0.08
x2 = 0.001096, x1 = 0.0008992	1.067 ± 0.081	0.964 ± 0.08	0.854 ± 0.08	0.777 ± 0.08	0.712 ± 0.08
x2 = 0.001123, x1 = 0.001797	1.088 ± 0.081	0.969 ± 0.08	0.877 ± 0.08	0.793 ± 0.08	0.723 ± 0.08
x2 = 0.001138, x1 = 0.002693	1.106 ± 0.081	0.986 ± 0.08	0.884 ± 0.08	0.797 ± 0.08	0.729 ± 0.08
x2 = 0.001364, x1 = 0.000899	1.073 ± 0.081	0.97 ± 0.08	0.86 ± 0.08	0.784 ± 0.08	0.718 ± 0.08
x2 = 0.001383, x1 = 0.001796	1.094 ± 0.081	0.976 ± 0.08	0.882 ± 0.08	0.798 ± 0.08	0.728 ± 0.08
x2 = 0.001395, x1 = 0.002692	1.111 ± 0.081	0.992 ± 0.08	0.889 ± 0.08	0.803 ± 0.08	0.734 ± 0.08
x2 = 0.001638, x1 = 0.0008987	1.078 ± 0.081	0.976 ± 0.08	0.866 ± 0.08	0.79 ± 0.08	0.724 ± 0.08
x2 = 0.001641, x1 = 0.001796	1.099 ± 0.081	0.981 ± 0.08	0.888 ± 0.08	0.805 ± 0.08	0.734 ± 0.08
x2 = 0.001656, x1 = 0.002691	1.117 ± 0.081	0.998 ± 0.08	0.896 ± 0.08	0.808 ± 0.08	0.739 ± 0.08
